This note sets out measurements from patent publication US6335339B1, “Triazine antiviral compounds” (Scriptgen Pharmaceuticals, Inc., priority 1998, dated 2002).

Series [1] is described as follows: neutral red dye uptake cytotoxicity. The series is classed as cell-based. Conditions: human, 2.2.15 cells (confluent cultures), 9 days treatment, read-out: 50% Cell Death CC50. The protocol: Further, the antiviral effect of any compound must be measured against its toxicity. Cytotoxicity is measured by the neutral red uptake method using the same cells used for antiviral activity.
2b. Compounds were prepared for toxicity treatment as follows: For each compound, a total of 4 concentrations were examined. This required 9 sets of 4 sterile, 1.1 ml minitubes (36 tubes per compound). Into the first tube of each set, sufficient compound was aliquoted to make up 465 μl of the highest test concentration. The other tubes were left empty. The tubes were covered with the rack lids, and stored at −20° C. or at an appropriate temperature. Tubes for the last day of treatment for toxicity testing contain the same amount of compound as used the previous days (not 3xas for the antiviral assays).
3b. The cytotoxicity of test compounds was analyzed in a 3.3-fold dilution series as follows. […] (155 μl×3) of RP2 were added to the first tube (containing the aliquot of compound) and 310 μL (155 μl×2) RP2 to each of the 3 remaining tubes. 150 μl of test compound-containing medium were serially transferred from the first tube to the other 3 tubes.
5. A single plate was used for the toxicity treatments for each test compound (up to 7 compounds per plates since the top row were reserved for untreated cells on every toxicity plate). To initiate the treatments, the culture medium was removed, and 100 μl of each dilution of every compound were added to each of 3 wells using a configuration similar to that shown above for the antiviral treatments. The untreated cells received 100 μl RP2 per well. Treatment was repeated daily for 9 days.
The antiviral effect of any compound was evaluated relative to its toxicity. Cells were seeded and treated following the guidelines above, after which a neutral red dye uptake assay was performed to assess toxicity as described below. Other assays of cytotoxicity (e.g., MTT) can be substituted for the procedure described below. Note that this procedure assesses toxicity under culture and treatment conditions which are identical to those used for the antiviral analyses, thereby permitting a determination as to whether the reduction in virus production due to a specific antiviral effect or due to a cytotoxic effect on the host cell. Since the cultures, by necessity, are at confluence, the cytotoxic effects of the test compounds will probably be reduced relative to the cytotoxic effects that would be expected for actively dividing cells.
1. Cultures were treated with test compounds on the designated toxicity plates as described above.
2. The culture medium was carefully removed 24 hours following the 9th day of treatment. The monolayer was fully removed in the top left three wells (row A, col. 1-3). These wells were used as “blanks” for the plate reader.
3. 100 μl DPBS (containing 0.01% neutral red dye) were added to each well, including the empty wells, and Incubated in the tissue culture incubator for 30 minutes.
4. The dye was removed carefully and gently, using a multichannel pipetman since the monolayers can become fragile after incubation with neutral red dye. 200 μl DPBS were added to all the wells taking care not to displace the monolayers. The DPBS was removed and 100 μl 50% EtOH/1% glacial acetic acid (in H2O) were added to each well. The plates were mixed for 15 minutes on an orbital platform shaker (120-150 RPM) to allow for full extraction of the dye from the cells.
5. Optical absorbance at 510 nm was read in an ELISA type plate reader, using the 3 empty wells to set the background. An average absorbance value was calculated for the 9 untreated cultures on a plate, and the absorbance of dye for the treated cultures on the same plate was expressed as a percentage of that value. This procedure was repeated for each individual plate. […]

Series [2] relates to RNA target containing only the bulge region of εRNA. In words: melting temperature of bulge RNA (OD 260 nm). The class given is binding, Hepatitis B virus. Conditions: 2 μM RNA plus 10 μM compound; RNA without drug 65° C. The protocol:
The melting temperature of the RNA was determined by monitoring the change in optical density at 260 nm with increasing temperature.
Further, a smaller RNA target containing only the bulge region of εRNA was prepared, and the melting temperature (tm) of this RNA structure was determined by monitoring the change in optical density (OD) at 260 nm while increasing the temperature. A 1 ml aliquot of reaction mixture contained 50 mM NaCl, 10 mM sodium cacodylate, pH 7.0, 10% DMSO, and 2 μM bulge RNA.

For orientation: CC50 means the concentration at which the toxic effect on the cells reaches its halfway point. With `CCN(CC)c1nc(NCc2ccccc2)nc(N/N=C/c2ccccc2O)n1` [Compound 155, 2-hydroxybenzaldehyde N-[4-(benzylamino)-6-(diethylamino)-1,3,5-triazin-2-yl]hydrazone], the CC50 at 9 days in series [1] stood at 59 µM.
As for `Cc1[nH]c2ccccc2c1C=NNc1nc(Nc2ccccc2)nc(Nc2ccc([N+](=O)[O-])cc2)n1` [Compound 6], the “melting temperature (tm) of bulge RNA” value in series [2] is 83 °C.
